Measurements reported in patent US8323674B2, “Synergistic biocide composition comprising 2-methylisothiazoline-3-one” (Thor GmbH, priority 2000, dated 2012).

Assays:
Type in all cases: cell-based
[1] = system: Pseudomonas aeruginosa; assay: MIC and synergistic index of MIT + BBIT in Müller-Hinton broth, 72 h/25° C.; conditions: for Synergistic index Qa/QA + Qb/QB: BBIT MIC of 500 ppm used as basis; for MIC value: only one biocide employed
Experimental: (§1) The synergistic index is calculated by the method of F. C. Kull et al., Applied Microbiology, vol. 9 (1961), p. 538. Here, the synergistic index is calculated using the following formula: Synergistic index SI=Qa/QA+Qb/QB.
(§2) If the synergistic index has a value of above 1, this means that antagonism is present. If the synergistic index assumes a value of 1, this means that an additive effect of the two biocides exists. If the synergistic index assumes a value of less than 1, this means that synergism of the two biocides exists.
(§3) Again, the experimental batches contained a Müller-Hinton broth as the nutrient medium. The cell density was 10^6 cells/ml. The incubation time was 72 hours at 25° C. Each sample was incubated in a shaker-incubator at 120 rpm.

[2] = system: Pseudomonas aeruginosa; assay: MIC and synergistic index of MIT + BNP in Müller-Hinton broth, 72 h/25° C.; conditions: for MIC: Pseudomonas aeruginosa
Experimental: as §1, §2, §3

[3] = system: Pseudomonas aeruginosa; assay: MIC and synergistic index of MIT + HCHO in Müller-Hinton broth, 96 h/25° C.; conditions: for MIC: Pseudomonas aeruginosa; for Synergistic index Qa/QA + Qb/QB: method of Kull
Experimental: In addition to the biocide component and water, the aqueous mixtures also comprised a nutrient medium, viz. a commercially available Müller-Hinton broth. The cell density was 10^6 cells/ml. The incubation time was 96 hours at 25° C. Each sample was incubated in a shaker-incubator at 120 rpm.
as §1, §2

[4] = system: Pseudomonas aeruginosa; assay: MIC and synergistic index of MIT + OPP in Müller-Hinton broth, 72 h/25° C.; conditions: for MIC: Pseudomonas aeruginosa, 72 h
Experimental: as §1, §2, §3

[5] = system: Pseudomonas aeruginosa; assay: MIC and synergistic index of MIT + ZnPy in Müller-Hinton broth, 72 h/25° C.; conditions: for MIC value: only one biocide employed
Experimental: as §1, §2, §3

[6] = system: Pseudomonas aeruginosa; assay: MIC and synergistic index of MIT + BAC in Müller-Hinton broth, 48 h/25° C.; conditions: for MIC value: biocide used alone
Experimental: as §1, §2
Again, the experimental batches contained a Müller-Hinton broth as nutrient medium. The cell density was 10^6 microorganisms/ml. The incubation time was 48 hours at 25° C. Each sample was incubated in a shaker-incubator at 120 rpm.

[7] = system: Pseudomonas aeruginosa; assay: MIC and synergistic index of MIT + NaPy in Müller-Hinton broth, 96 h/25° C.; conditions: for MIC value: only one biocide employed
Experimental: as §1, §2
Again, the experimental batches contained a Müller-Hinton broth as the nutrient medium. The cell density was 10^6 cells/ml. The incubation time was 96 hours at 25° C. Each sample was incubated in a shaker-incubator at 120 rpm.

[8] = system: Pseudomonas aeruginosa; assay: MIC and synergistic index of MIT + PMG in Müller-Hinton broth, 48 h/25° C.; conditions: for MIC value: only one biocide employed
Experimental: as §1, §2
Again, the experimental batches contained a Müller-Hinton broth as the nutrient medium. The cell density was 10^6 cells/ml. The incubation time was 48 hours at 25° C. Each sample was incubated in a shaker-incubator at 120 rpm.

[9] = system: Pseudomonas aeruginosa; assay: MIC and synergistic index of MIT + HMBIT in Müller-Hinton broth, 48 h/30° C.; conditions: for MIC value: biocide used alone, 48 hours at 30° C.
Experimental: as §1, §2
Again, the experimental batches contained a Müller-Hinton broth as nutrient medium. The cell density was 10^6 microorganisms/ml. […] Each sample was incubated in a shaker-incubator at 120 rpm.

[10] = Pseudomonas aeruginosa, incubation 48 h/25° C.

CCCCn1sc2ccccc2c1=O [BBIT, N-butyl-1,2-benzoisothiazolin-3-one]
1.00: Synergistic index Qa/QA + Qb/QB [1] | Qb/QB ([1]; QB = 500 ppm used as basis)
500 ppm: MIC at Total concentration MIT + BBIT Qa + Qb [1] | MIC at BBIT concentration Qb ([1]; for BBIT alone 500 ppm used as the basis for the calculation)
over 500 ppm: MIC value [1]

O=[N+]([O-])C(Br)(CO)CO [BNP, 2-bromo-2-nitro-1,3-propanediol]
1.00: Qb/QB [2] | Synergistic index Qa/QA + Qb/QB [2]
20 µg/mL: MIC ([2]; only one biocide employed, read-out: MIC value) | MIC ([2]; read-out: MIC at BNP concentration Qb) | MIC ([2]; read-out: MIC at Total concentration of MIT + BNP Qa + Qb)

C=O [HCHO, formaldehyde]
1.00: Qb/QB [3] | Synergistic index Qa/QA + Qb/QB [3]
100 µg/mL: MIC ([3]; only one biocide used, read-out: MIC value) | MIC ([3]; read-out: MIC at HCHO concentration Qb) | MIC ([3]; read-out: MIC at Total concentration of MIT + HCHO Qa + Qb)

Cn1sccc1=O [MIT, 2-methylisothiazolin-3-one]
40 ppm: MIC at MIT concentration Qa ([4]; 72 h/25° C.) | MIC at Total concentration MIT + OPP Qa + Qb ([4]; 72 h/25° C.) | MIC value ([4]; only one biocide employed, 72 h/25° C.) | MIC at MIT concentration Qa ([5]; 72 h/25° C.) | MIC at Total concentration MIT + ZnPy Qa + Qb ([5]; 72 h/25° C.) | MIC value ([5]; 72 h/25° C.) | MIC at MIT concentration Qa [1] | MIC at Total concentration MIT + BBIT Qa + Qb [1] | MIC value [1] | MIC at MIT concentration Qa ([6]; MIT share of the MIC of the MIT + BAC mixture, Pseudomonas aeruginosa, incubation 48 h/25° C.) | MIC at Total concentration MIT + BAC Qa + Qb [6, 10] | MIC value ([6]; 48 h/25° C.) | MIC at MIT concentration Qa [2] | MIC at Total concentration of MIT + BNP Qa + Qb [2] | MIC value ([2]; only one biocide employed) | MIC at MIT concentration Qa [8] | MIC at Total concentration MIT + PMG Qa + Qb [8] | MIC value [8]
60 ppm: MIC at MIT concentration Qa [7] | MIC at Total concentration MIT + NaPy Qa + Qb [7] | MIC value [7] | MIC at MIT concentration Qa [3] | MIC at Total concentration of MIT + HCHO Qa + Qb [3] | MIC value ([3]; only one biocide used)
50 ppm: MIC at MIT concentration Qa [9] | MIC at Total concentration MIT + HMBIT Qa + Qb [9] | MIC value [9]
1.00: Qa/QA ([4]; 72 h/25° C.) | Synergistic index Qa/QA + Qb/QB ([4]; 72 h/25° C.) | Synergistic index Qa/QA + Qb/QB [5] | Qa/QA ([5]; 72 h/25° C.) | Qa/QA [1] | Synergistic index Qa/QA + Qb/QB [1] | Qa/QA ([6]; MIT concentration in mixture at MIC / MIC of MIT alone (40 ppm), 48 h/25° C.) | Synergistic index Qa/QA + Qb/QB [6, 10] | Qa/QA [2] | Synergistic index Qa/QA + Qb/QB [2] | Qa/QA [7] | Synergistic index Qa/QA + Qb/QB [7] | Qa/QA [8] | Synergistic index Qa/QA + Qb/QB [8] | Qa/QA [3] | Synergistic index Qa/QA + Qb/QB [3] | Qa/QA [9] | Synergistic index Qa/QA + Qb/QB [9]

[Na+].[O-][n+]1ccccc1[S-] [NaPy, sodium pyrithione]
1.00: Qb/QB [7] | Synergistic index Qa/QA + Qb/QB [7]
200 ppm: MIC at NaPy concentration Qb [7] | MIC at Total concentration MIT + NaPy Qa + Qb [7] | MIC value [7]

Oc1ccccc1-c1ccccc1 [OPP, o-phenylphenol]
1.00: Qb/QB ([4]; 72 h/25° C.) | Synergistic index Qa/QA + Qb/QB ([4]; 72 h/25° C.)
750 µg/mL: MIC ([4]; read-out: MIC at OPP concentration Qb) | MIC ([4]; read-out: MIC at Total concentration MIT + OPP Qa + Qb) | MIC ([4]; read-out: MIC value)

N-hydroxymethyl-1,2-benzoisothiazolin-3-one [HMBIT]
150 ppm: MIC at HMBIT concentration Qb [9] | MIC at Total concentration MIT + HMBIT Qa + Qb [9] | MIC value [9]
1.00: Qb/QB [9] | Synergistic index Qa/QA + Qb/QB [9]

dimethylbenzylalkonium chloride [BAC]
80 ppm: MIC at BAC concentration Qb ([6]; BAC share of the MIC of the MIT + BAC mixture, Pseudomonas aeruginosa, incubation 48 h/25° C.) | MIC at Total concentration MIT + BAC Qa + Qb [6, 10] | MIC value ([6]; 48 h/25° C.)
1.00: Qb/QB ([6]; BAC concentration in mixture at MIC / MIC of BAC alone (80 ppm), 48 h/25° C.) | Synergistic index Qa/QA + Qb/QB [6, 10]

polyhexamethylenebiguanide [PMG]
30 ppm: MIC at PMG concentration Qb [8] | MIC at Total concentration MIT + PMG Qa + Qb [8] | MIC value [8]
1.00: Qb/QB [8] | Synergistic index Qa/QA + Qb/QB [8]

zinc pyrithione [ZnPy]
1.00: Qb/QB ([5]; 72 h/25° C., QB = 100 ppm used as basis) | Synergistic index Qa/QA + Qb/QB ([5]; 72 h/25° C., ZnPy MIC of 100 ppm used as basis)
100 ppm: MIC at Total concentration MIT + ZnPy Qa + Qb ([5]; 72 h/25° C.) | MIC at ZnPy concentration Qb ([5]; 72 h/25° C., for ZnPy alone 100 ppm used as the basis for the calculation)
over 100 ppm: MIC value ([5]; 72 h/25° C.)
